# According to ChEMBL document CHEMBL4673219, “Novel 5,6-disubstituted pyrrolo[2,3-d]pyrimidine derivatives as broad spectrum antiproliferative agents: Synthesis, cell based assays, kinase profile and molecular docking study” (Bioorg Med Chem, 2018):
# Columns and labels:
# Assay type in all cases: functional
# [1] = tested on: NCI-H226; experiment: Growth inhibition of human NCI-H226 cells assessed as growth percentage at 10 uM incubated for 48 hrs by sulforhodamine B assay relative to control; details: read-out: Activity
# [2] = tested on: K562; experiment: Growth inhibition of human K562 cells assessed as growth percentage at 100 uM incubated for 48 hrs by sulforhodamine B assay relative to control; details: read-out: Activity
# [3] = tested on: MDA-MB-468; experiment: Growth inhibition of human MDA-MB-468 cells assessed as growth percentage at 100 uM incubated for 48 hrs by sulforhodamine B assay relative to control; details: read-out: Activity
# [4] = tested on: SN12C; experiment: Growth inhibition of human SN12C cells assessed as growth percentage at 10 uM incubated for 48 hrs by sulforhodamine B assay relative to control; details: read-out: Activity
# [5] = tested on: A549; experiment: Growth inhibition of human A549/ATCC cells assessed as growth percentage at 0.01 uM incubated for 48 hrs by sulforhodamine B assay relative to control; details: read-out: Activity
# [6] = tested on: HL-60(TB); experiment: Growth inhibition of human HL-60(TB) cells assessed as growth percentage at 10 uM incubated for 48 hrs by sulforhodamine B assay relative to control; details: read-out: Activity
# [7] = tested on: SN12C; experiment: Growth inhibition of human SN12C cells assessed as growth percentage at 1 uM incubated for 48 hrs by sulforhodamine B assay relative to control; details: read-out: Activity
# [8] = tested on: SNB-19; experiment: Growth inhibition of human SNB-19 cells incubated for 48 hrs by sulforhodamine B assay
# [9] = tested on: SF-295; experiment: Growth inhibition of human SF-295 cells assessed as growth percentage at 0.01 uM incubated for 48 hrs by sulforhodamine B assay relative to control; details: read-out: Activity
# [10] = tested on: COLO 205; experiment: Growth inhibition of human COLO 205 cells assessed as growth percentage at 0.01 uM incubated for 48 hrs by sulforhodamine B assay relative to control; details: read-out: Activity
# [11] = tested on: SK-OV-3; experiment: Growth inhibition of human SK-OV-3 cells assessed as growth percentage at 0.01 uM incubated for 48 hrs by sulforhodamine B assay relative to control; details: read-out: Activity
# [12] = tested on: NCI-H23; experiment: Growth inhibition of human NCI-H23 cells assessed as growth percentage at 1 uM incubated for 48 hrs by sulforhodamine B assay relative to control; details: read-out: Activity
# [13] = tested on: MCF7; experiment: Growth inhibition of human MCF7 cells assessed as growth percentage at 0.1 uM incubated for 48 hrs by sulforhodamine B assay relative to control; details: read-out: Activity
# [14] = tested on: HCT-116; experiment: Growth inhibition of human HCT-116 cells assessed as growth percentage at 10 uM incubated for 48 hrs by sulforhodamine B assay relative to control; details: read-out: Activity
# [15] = tested on: U-251; experiment: Growth inhibition of human U-251 cells assessed as growth percentage at 0.1 uM incubated for 48 hrs by sulforhodamine B assay relative to control; details: read-out: Activity
# [16] = tested on: 786-0; experiment: Growth inhibition of human 786-0 cells incubated for 48 hrs by sulforhodamine B assay
# [17] = tested on: Malme-3M; experiment: Growth inhibition of human Malme-3M cells assessed as growth percentage at 0.01 uM incubated for 48 hrs by sulforhodamine B assay relative to control; details: read-out: Activity
# [18] = tested on: UO-31; experiment: Growth inhibition of human UO-31 cells assessed as growth percentage at 100 uM incubated for 48 hrs by sulforhodamine B assay relative to control; details: read-out: Activity
# [19] = tested on: NCI-H522; experiment: Growth inhibition of human NCI-H522 cells assessed as growth percentage at 10 uM incubated for 48 hrs by sulforhodamine B assay relative to control; details: read-out: Activity
# [20] = tested on: NCI-H460; experiment: Growth inhibition of human NCI-H460 cells assessed as growth percentage at 0.1 uM incubated for 48 hrs by sulforhodamine B assay relative to control; details: read-out: Activity
# [21] = tested on: SR; experiment: Growth inhibition of human SR cells assessed as growth percentage at 100 uM incubated for 48 hrs by sulforhodamine B assay relative to control; details: read-out: Activity
# [22] = tested on: RPMI-8226; experiment: Growth inhibition of human RPMI-8226 cells assessed as growth percentage at 0.01 uM incubated for 48 hrs by sulforhodamine B assay relative to control; details: read-out: Activity
# [23] = tested on: RPMI-8226; experiment: Growth inhibition of human RPMI-8226 cells assessed as growth percentage at 100 uM incubated for 48 hrs by sulforhodamine B assay relative to control; details: read-out: Activity
# [24] = tested on: SF-268; experiment: Growth inhibition of human SF-268 cells assessed as growth percentage at 100 uM incubated for 48 hrs by sulforhodamine B assay relative to control; details: read-out: Activity
# [25] = tested on: K562; experiment: Growth inhibition of human K562 cells assessed as growth percentage at 1 uM incubated for 48 hrs by sulforhodamine B assay relative to control; details: read-out: Activity
# [26] = tested on: HOP-92; experiment: Growth inhibition of human HOP-92 cells assessed as growth percentage at 10 uM incubated for 48 hrs by sulforhodamine B assay relative to control; details: read-out: Activity
# [27] = tested on: OVCAR-8; experiment: Growth inhibition of human OVCAR-8 cells assessed as growth percentage at 1 uM incubated for 48 hrs by sulforhodamine B assay relative to control; details: read-out: Activity
# [28] = tested on: OVCAR-4; experiment: Growth inhibition of human OVCAR-4 cells assessed as growth percentage at 0.01 uM incubated for 48 hrs by sulforhodamine B assay relative to control; details: read-out: Activity
# [29] = tested on: UACC-257; experiment: Growth inhibition of human UACC-257 cells assessed as growth percentage at 10 uM incubated for 48 hrs by sulforhodamine B assay relative to control; details: read-out: Activity
# [30] = tested on: HCT-116; experiment: Antiproliferative activity against human HCT-116 cells assessed as cell growth inhibition measured after 72 hrs by MTT assay
# [31] = tested on: HT-29; experiment: Growth inhibition of human HT-29 cells assessed as growth percentage at 10 uM incubated for 48 hrs by sulforhodamine B assay relative to control; details: read-out: Activity
# [32] = tested on: UACC-62; experiment: Growth inhibition of human UACC-62 cells assessed as growth percentage at 1 uM incubated for 48 hrs by sulforhodamine B assay relative to control; details: read-out: Activity
# [33] = tested on: MDA-MB-468; experiment: Growth inhibition of human MDA-MB-468 cells assessed as growth percentage at 1 uM incubated for 48 hrs by sulforhodamine B assay relative to control; details: read-out: Activity
# [34] = tested on: SK-MEL-5; experiment: Growth inhibition of human SK-MEL-5 cells assessed as growth percentage at 10 uM incubated for 48 hrs by sulforhodamine B assay relative to control; details: read-out: Activity
# [35] = tested on: OVCAR-3; experiment: Growth inhibition of human OVCAR-3 cells assessed as growth percentage at 0.1 uM incubated for 48 hrs by sulforhodamine B assay relative to control; details: read-out: Activity
# [36] = tested on: T47D; experiment: Growth inhibition of human T47D cells assessed as growth percent at 0.1 uM incubated for 48 hrs by sulforhodamine B assay relative to control; details: read-out: Activity
# [37] = tested on: UO-31; experiment: Growth inhibition of human UO-31 cells assessed as growth percentage at 10 uM incubated for 48 hrs by sulforhodamine B assay relative to control; details: read-out: Activity
# [38] = tested on: CAKI-1; experiment: Growth inhibition of human CAKI-1 cells incubated for 48 hrs by sulforhodamine B assay; details: Homo sapiens
# [39] = tested on: Hs-578T; experiment: Growth inhibition of human Hs-578T cells assessed as growth percentage at 10 uM incubated for 48 hrs by sulforhodamine B assay relative to control; details: read-out: Activity
smiles,measurement,setting,value
CCCCCCCC(=O)Nc1nc2[nH]c(CN3CCN(Cc4cccc(F)c4)CC3)c(CN3CCN(Cc4cccc(F)c4)CC3)c2c(=O)[nH]1,growth at 10 µM,[1],87.6%
same,growth at 100 µM,[2],-1%
same,growth at 100 µM,[3],-75%
same,growth at 10 µM,[4],-90.6%
same,growth at 0.01 µM,[5],98%
same,growth at 10 µM,[6],-60.1%
same,growth at 1 µM,[7],76%
same,GI50,[8],1.56 µM
same,LC50 (concentration killing 50% of cells),[8],6.34 µM
same,TGI,[8],3.14 µM
same,growth at 0.01 µM,[9],97%
same,growth at 0.01 µM,[10],92%
same,growth at 0.01 µM,[11],108%
same,growth at 1 µM,[12],92%
same,growth at 0.1 µM,[13],87%
same,growth at 10 µM,[14],-96.7%
same,growth at 0.1 µM,[15],92%
same,GI50,[16],1.54 µM
same,LC50 (concentration killing 50% of cells),[16],5.67 µM
same,TGI,[16],2.95 µM
same,growth at 0.01 µM,[17],98%
same,growth at 100 µM,[18],-81%
same,growth at 10 µM,[19],-71.5%
same,growth at 0.1 µM,[20],105%
same,growth at 100 µM,[21],-12%
same,growth at 0.01 µM,[22],101%
same,growth at 100 µM,[23],1%
same,growth at 100 µM,[24],-77%
same,growth at 1 µM,[25],-31%
same,growth at 10 µM,[26],-7.31%
same,growth at 1 µM,[27],-66%
same,growth at 0.01 µM,[28],98%
same,growth at 10 µM,[29],-18.5%
same,GI50,[30],2.25 µM
same,growth at 10 µM,[31],-69.7%
same,growth at 1 µM,[32],92%
same,growth at 1 µM,[33],29%
same,growth at 10 µM,[34],33.5%
same,growth at 0.1 µM,[35],102%
same,growth at 0.1 µM,[36],88%
same,growth at 10 µM,[37],-96.5%
same,GI50,[38]; CAKI-1,1.32 µM
same,TGI,"[38]; CAKI-1, 48 h",2.61 µM
same,CC50,"[38]; CAKI-1, 48 h, read-out: LC50 (the source's name)",5.18 µM
same,growth at 10 µM,[39],-49.4%
